Reference: patent publication US12195557B2, “Optimised compounds” (AXELIA ONCOLOGY PTY LTD, priority 2017, dated 2025)
Where “and” joins values, the source holds several entries; their conditions need not be identical. Identical values can stand only once. Entries after “also recorded” stand apart in the source; their conditions may differ.

Tests used:
[1] = in vitro; settings: dog, hepatocytes
[2] = in vitro; settings: rat, hepatocytes
[3] = test system: cytokines/chemokines (IL-6, KC, MCP-1, RANTES); experiment: Cytokine/chemokine levels in nasal turbinates, trachea, lungs and sera (cytometric bead array); assay type: in vivo, C57BL/6 mice
[4] = test system: TLR-2; experiment: TLR panel, NF-κB inducible SEAP reporter in HEK293 cells: TLR-2; assay type: cell-based, human and mouse
Description: INNA-006 was assessed for its ability to activate a range of other TLR pattern recognition receptors. These assessments were conducted using both human and mouse TLR panels. These assays detect a secreted embryonic alkaline phosphatase (SEAP) reporter under the control of a promoter which is inducible by NF-κB activation in HEK293 cells. The secreted embryonic alkaline phosphatase (SEAP) reporter is under the control of a promoter inducible by the transcription factor NF-κB. This reporter gene allows the monitoring of signaling through the TLR, based on the activation of NF-κB. In a 96-well plate (200 μL total volume) containing the appropriate cells (50,000-75,000 cells/well), 20 μL of the test article or the positive control ligand is added to the wells. The media added to the wells is designed for the detection of NF-κB induced SEAP expression. After a 16-24 hr incubation the optical density (OD) is read at 650 nm on a Molecular Devices SpectraMax 340PC absorbance detector. • hTLR2: HKLM (heat-killed Listeria monocytogenes) at 1×10^8 cells/mL • hTLR3: Poly(I:C) HMW at 1 μg/mL • hTLR4: E. coli K12 LPS at 100 ng/mL • hTLR5: S. typhimurium flagellin at 100 ng/mL • hTLR7: CL307 at 1 μg/mL • hTLR8: CL075 at 1 μg/mL • hTLR9: CpG ODN2006 at 1 μg/mL.

[5] = 3-dose regime, 0.5 and 0.05 nmole doses

SMILES: CCC(=O)OCC(CSCC(N)C(=O)NC(CO)C(=O)NCCOCC(=O)NCC(N)=O)OC(=O)CC (stereo not drawn) [INNA-006, Pam2Cys-Ser-PEG]
- half-life at 0.5 μM [1]: > 6.25 h
- hepatocyte CLint at 0.5 μM [1]: < 2 µL/min/1e6 cells
- half-life at 0.5 μM [2]: > 6.25 h
- hepatocyte CLint at 0.5 μM [2]: < 2 µL/min/1e6 cells
- fold lower IL-6 in nasal turbinates, 3 doses compared to single dose ([3]; 0.5 nmoles): approximately 25 fold
- cytokine/chemokine levels in nasal turbinates, lungs and sera, 3 repeat doses compared to single dose ([3]; 0.5 or 0.05 nmoles): marked decrease in cytokine/chemokine levels
- level of KC in lungs ([3]; 3-dose regime (both 0.5 and 0.05 nmole doses)): ~14 pg/mL and ~16.3 pg/mL
- fold increase of KC secretion in lungs compared to INNA-003 [3, 5]: 2 fold
- fold increase of KC secretion in lungs compared to saline control [3, 5]: 3 fold
- level of IL-6 in nasal turbinates ([3]; 3 doses (0.5 nmoles), 24 hours after last dose): 15 pg/mL
- fold increase of KC in nasal turbinates versus saline ([3]; mouse, in vivo): 2 fold
- level of KC in nasal turbinates ([3]; mouse, in vivo): ~83 pg/mL
- inflammatory cytokines after pre-treatment and Udorn challenge ([3]; pre-treatment with up to three doses followed by challenge): no detectable change in any of the inflammatory cytokines measured
- KC in the lungs compared to saline control ([3]; single dose): no significance
- RANTES in nasal turbinates compared to INNA-003 ([3]; single dose 0.5 nmoles): increased RANTES secretion
- fold increase in IL-6 levels in nasal turbinates versus saline ([3]; single dose 0.5 nmoles): 98 fold
- level of IL-6 in nasal turbinates ([3]; single dose (0.5 nmoles), 24 hours after dose): ~395 pg/mL
- cytokine/chemokine profile in nasal turbinates compared to saline (IL-6, KC & MCP-1) ([3]; single or 3 repeat doses, 0.5 or 0.05 nmoles, dose-dependent): increase in proinflammatory cytokines and chemokines
- TLR-2 activation [4]: specific TLR-2 activation; also recorded: able to activate
